Measurements taken from ChEMBL document CHEMBL4613211, “Aurone: A biologically attractive scaffold as anticancer agent” (Eur J Med Chem, 2019).

Assays:
Format in all cases: functional
CCRF-CEM = experiment: Growth inhibition of human CCRF-CEM cells at 10 uM after 48 hrs by sulforhodamine B assay relative to control; settings: read-out: GI
IGROV-1 = experiment: Growth inhibition of human IGROV1 cells at 10 uM after 48 hrs by sulforhodamine B assay relative to control; settings: IGROV-1, 48 h, read-out: GI
NCI-H23 = experiment: Growth inhibition of human NCI-H23 cells at 10 uM after 48 hrs by sulforhodamine B assay relative to control; settings: NCI-H23, 48 h, read-out: GI
ACHN = experiment: Growth inhibition of human ACHN cells at 10 uM after 48 hrs by sulforhodamine B assay relative to control; settings: read-out: GI
SF-295 = experiment: Growth inhibition of human SF295 cells at 10 uM after 48 hrs by sulforhodamine B assay relative to control; settings: SF-295, 48 h, read-out: GI
786-0 = experiment: Growth inhibition of human 786-0 cells at 10 uM after 48 hrs by sulforhodamine B assay relative to control; settings: 786-0, 48 h, read-out: GI
UACC-62 = experiment: Growth inhibition of human UACC62 cells at 10 uM after 48 hrs by sulforhodamine B assay relative to control; settings: UACC-62, 48 h, read-out: GI
KM12 = experiment: Growth inhibition of human KM12 cells at 10 uM after 48 hrs by sulforhodamine B assay relative to control; settings: KM12, 48 h, read-out: GI
Hs-578T = experiment: Growth inhibition of human Hs 578T cells at 10 uM after 48 hrs by sulforhodamine B assay relative to control; settings: read-out: GI
NCI-H226 = experiment: Growth inhibition of human NCI-H226 cells at 10 uM after 48 hrs by sulforhodamine B assay relative to control; settings: NCI-H226, 48 h, read-out: GI
UO-31 = experiment: Growth inhibition of human UO31 cells at 10 uM after 48 hrs by sulforhodamine B assay relative to control; settings: UO-31, 48 h, read-out: GI
HL-60(TB) = experiment: Growth inhibition of human HL-60(TB) cells at 10 uM after 48 hrs by sulforhodamine B assay relative to control; settings: HL-60, 48 h, read-out: GI
Malme-3M = experiment: Growth inhibition of human MALME-3M cells at 10 uM after 48 hrs by sulforhodamine B assay relative to control; settings: read-out: GI
OVCAR-3 = experiment: Growth inhibition of human OVCAR3 cells at 10 uM after 48 hrs by sulforhodamine B assay relative to control; settings: OVCAR-3, 48 h, read-out: GI
NCI-H460 = experiment: Growth inhibition of human NCI-H460 cells at 10 uM after 48 hrs by sulforhodamine B assay relative to control; settings: NCI-H460, 48 h, read-out: GI
M14 = experiment: Growth inhibition of human M14 cells at 10 uM after 48 hrs by sulforhodamine B assay relative to control; settings: M14, 48 h, read-out: GI
SNB-75 = experiment: Growth inhibition of human SNB75 cells at 10 uM after 48 hrs by sulforhodamine B assay relative to control; settings: SNB-75, 48 h, read-out: GI
SR = experiment: Growth inhibition of human SR cells at 10 uM after 48 hrs by sulforhodamine B assay relative to control; settings: read-out: GI
NCI-H322M = experiment: Growth inhibition of human NCI-H322M cells at 10 uM after 48 hrs by sulforhodamine B assay relative to control; settings: read-out: GI
U-251 = experiment: Growth inhibition of human U251 cells at 10 uM after 48 hrs by sulforhodamine B assay relative to control; settings: U-251, 48 h, read-out: GI
MDA-MB-231 = experiment: Growth inhibition of human MDA-MB-231 cells at 10 uM after 48 hrs by sulforhodamine B assay relative to control; settings: MDA-MB-231, 48 h, read-out: GI
DU-145 = experiment: Growth inhibition of human DU145 cells at 10 uM after 48 hrs by sulforhodamine B assay relative to control; settings: DU-145, 48 h, read-out: GI
OVCAR-4 = experiment: Growth inhibition of human OVCAR4 cells at 10 uM after 48 hrs by sulforhodamine B assay relative to control; settings: OVCAR-4, 48 h, read-out: GI
SK-OV-3 = experiment: Growth inhibition of human SKOV3 cells at 10 uM after 48 hrs by sulforhodamine B assay relative to control; settings: SK-OV-3, 48 h, read-out: GI
K562 = experiment: Growth inhibition of human K562 cells at 10 uM after 48 hrs by sulforhodamine B assay relative to control; settings: K562, 48 h, read-out: GI
COLO 205 = experiment: Growth inhibition of human COLO205 cells at 10 uM after 48 hrs by sulforhodamine B assay relative to control; settings: COLO 205, 48 h, read-out: GI
MCF7 = experiment: Growth inhibition of human MCF7 cells at 10 uM after 48 hrs by sulforhodamine B assay relative to control; settings: MCF7, 48 h, read-out: GI
UACC-257 = experiment: Growth inhibition of human UACC257 cells at 10 uM after 48 hrs by sulforhodamine B assay relative to control; settings: UACC-257, 48 h, read-out: GI
SK-MEL-5 = experiment: Growth inhibition of human SK-MEL-5 cells at 10 uM after 48 hrs by sulforhodamine B assay relative to control; settings: SK-MEL-5, 48 h, read-out: GI
A549 = experiment: Growth inhibition of human A549/ATCC cells at 10 uM after 48 hrs by sulforhodamine B assay relative to control; settings: A549, 48 h, read-out: GI
NCI-H522 = experiment: Growth inhibition of human NCI-H522 cells at 10 uM after 48 hrs by sulforhodamine B assay relative to control; settings: NCI-H522, 48 h, read-out: GI
NCI/ADR-RES = experiment: Growth inhibition of human NCI-ADR-RES cells at 10 uM after 48 hrs by sulforhodamine B assay relative to control; settings: read-out: GI
HCC 2998 = experiment: Growth inhibition of human HCC2998 cells at 10 uM after 48 hrs by sulforhodamine B assay relative to control; settings: HCC 2998, 48 h, read-out: GI
A498 = experiment: Growth inhibition of human A498 cells at 10 uM after 48 hrs by sulforhodamine B assay relative to control; settings: A498, 48 h, read-out: GI
SW-620 = experiment: Growth inhibition of human SW620 cells at 10 uM after 48 hrs by sulforhodamine B assay relative to control; settings: SW-620, 48 h, read-out: GI
SNB-19 = experiment: Growth inhibition of human SNB19 cells at 10 uM after 48 hrs by sulforhodamine B assay relative to control; settings: SNB-19, 48 h, read-out: GI
MOLT-4 = experiment: Growth inhibition of human MOLT4 cells at 10 uM after 48 hrs by sulforhodamine B assay relative to control; settings: MOLT-4, 48 h, read-out: GI

| Compound | inhibition of growth at 10 µM (CCRF-CEM) [%] | inhibition of growth at 10 µM (IGROV-1) [%] | inhibition of growth at 10 µM (NCI-H23) [%] | inhibition of growth at 10 µM (ACHN) [%] | inhibition of growth at 10 µM (SF-295) [%] | inhibition of growth at 10 µM (786-0) [%] | inhibition of growth at 10 µM (UACC-62) [%] | inhibition of growth at 10 µM (KM12) [%] | inhibition of growth at 10 µM (Hs-578T) [%] | inhibition of growth at 10 µM (NCI-H226) [%] | inhibition of growth at 10 µM (UO-31) [%] | inhibition of growth at 10 µM (HL-60(TB)) [%] | inhibition of growth at 10 µM (Malme-3M) [%] | inhibition of growth at 10 µM (OVCAR-3) [%] | inhibition of growth at 10 µM (NCI-H460) [%] | inhibition of growth at 10 µM (M14) [%] | inhibition of growth at 10 µM (SNB-75) [%] | inhibition of growth at 10 µM (SR) [%] | inhibition of growth at 10 µM (NCI-H322M) [%] | inhibition of growth at 10 µM (U-251) [%] | other results |
| --- | --- | --- | --- | --- | --- | --- | --- | --- | --- | --- | --- | --- | --- | --- | --- | --- | --- | --- | --- | --- | --- |
| COc1ccc(/C=C2\Oc3c(c(OC)c4ccoc4c3CN3CCOCC3)C2=O)cc1 | 56.4 to 65.2 | 56.4 to 65.2 | 56.4 to 65.2 | 56.4 to 65.2 | 56.4 to 65.2 | 56.4 to 65.2 | 56.4 to 65.2 | 56.4 to 65.2 | 56.4 to 65.2 | 56.4 to 65.2 | 56.4 to 65.2 | 56.4 to 65.2 | 56.4 to 65.2 | 56.4 to 65.2 | 56.4 to 65.2 | 56.4 to 65.2 | 56.4 to 65.2 | 56.4 to 65.2 | 56.4 to 65.2 | 56.4 to 65.2 | inhibition of growth at 10 µM (MDA-MB-231): 56.4 to 65.2%; inhibition of growth at 10 µM (DU-145): 56.4 to 65.2%; inhibition of growth at 10 µM (OVCAR-4): 56.4 to 65.2%; inhibition of growth at 10 µM (SK-OV-3): 56.4 to 65.2%; inhibition of growth at 10 µM (K562): 56.4 to 65.2%; inhibition of growth at 10 µM (COLO 205): 56.4 to 65.2%; inhibition of growth at 10 µM (MCF7): 56.4 to 65.2%; inhibition of growth at 10 µM (UACC-257): 56.4 to 65.2%; inhibition of growth at 10 µM (SK-MEL-5): 56.4 to 65.2%; inhibition of growth at 10 µM (A549): 56.4 to 65.2%; inhibition of growth at 10 µM (NCI-H522): 56.4 to 65.2%; inhibition of growth at 10 µM (NCI/ADR-RES): 56.4 to 65.2%; inhibition of growth at 10 µM (HCC 2998): 56.4 to 65.2%; inhibition of growth at 10 µM (A498): 56.4 to 65.2%; inhibition of growth at 10 µM (SW-620): 56.4 to 65.2%; inhibition of growth at 10 µM (SNB-19): 56.4 to 65.2%; inhibition of growth at 10 µM (MOLT-4): 56.4 to 65.2% |
| COc1ccc2c(c1)O/C(=C\c1ccc(OCC(=O)Nc3ccccc3)c(OC)c1)C2=O | 18.9 to 27.1 | 18.9 to 27.1 | 18.9 to 27.1 | 18.9 to 27.1 | 18.9 to 27.1 | 18.9 to 27.1 | 18.9 to 27.1 | 18.9 to 27.1 | 18.9 to 27.1 | 18.9 to 27.1 | 18.9 to 27.1 | 18.9 to 27.1 | 18.9 to 27.1 | 18.9 to 27.1 | 18.9 to 27.1 | 18.9 to 27.1 | 18.9 to 27.1 | 18.9 to 27.1 | 18.9 to 27.1 | 18.9 to 27.1 | inhibition of growth at 10 µM (MDA-MB-231): 18.9 to 27.1%; inhibition of growth at 10 µM (DU-145): 18.9 to 27.1%; inhibition of growth at 10 µM (OVCAR-4): 18.9 to 27.1%; inhibition of growth at 10 µM (SK-OV-3): 18.9 to 27.1%; inhibition of growth at 10 µM (K562): 18.9 to 27.1%; inhibition of growth at 10 µM (COLO 205): 18.9 to 27.1%; inhibition of growth at 10 µM (MCF7): 18.9 to 27.1%; inhibition of growth at 10 µM (UACC-257): 18.9 to 27.1%; inhibition of growth at 10 µM (SK-MEL-5): 18.9 to 27.1%; inhibition of growth at 10 µM (A549): 18.9 to 27.1%; inhibition of growth at 10 µM (NCI-H522): 18.9 to 27.1%; inhibition of growth at 10 µM (NCI/ADR-RES): 18.9 to 27.1%; inhibition of growth at 10 µM (HCC 2998): 18.9 to 27.1%; inhibition of growth at 10 µM (A498): 18.9 to 27.1%; inhibition of growth at 10 µM (SW-620): 18.9 to 27.1%; inhibition of growth at 10 µM (SNB-19): 18.9 to 27.1%; inhibition of growth at 10 µM (MOLT-4): 18.9 to 27.1% |
| COc1cc(/C=C2\Oc3cc4occc4c(OC)c3C2=O)ccc1OCC(=O)Nc1ccccc1 | 67.1 to 79.6 | 67.1 to 79.6 | 67.1 to 79.6 | 67.1 to 79.6 | 67.1 to 79.6 | 67.1 to 79.6 | 67.1 to 79.6 | 67.1 to 79.6 | 67.1 to 79.6 | 67.1 to 79.6 | 67.1 to 79.6 | 67.1 to 79.6 | 67.1 to 79.6 | 67.1 to 79.6 | 67.1 to 79.6 | 67.1 to 79.6 | 67.1 to 79.6 | 67.1 to 79.6 | 67.1 to 79.6 | 67.1 to 79.6 | inhibition of growth at 10 µM (MDA-MB-231): 67.1 to 79.6%; inhibition of growth at 10 µM (DU-145): 67.1 to 79.6%; inhibition of growth at 10 µM (OVCAR-4): 67.1 to 79.6%; inhibition of growth at 10 µM (SK-OV-3): 67.1 to 79.6%; inhibition of growth at 10 µM (K562): 67.1 to 79.6%; inhibition of growth at 10 µM (COLO 205): 67.1 to 79.6%; inhibition of growth at 10 µM (MCF7): 67.1 to 79.6%; inhibition of growth at 10 µM (UACC-257): 67.1 to 79.6%; inhibition of growth at 10 µM (SK-MEL-5): 67.1 to 79.6%; inhibition of growth at 10 µM (A549): 67.1 to 79.6%; inhibition of growth at 10 µM (NCI-H522): 67.1 to 79.6%; inhibition of growth at 10 µM (NCI/ADR-RES): 67.1 to 79.6%; inhibition of growth at 10 µM (HCC 2998): 67.1 to 79.6%; inhibition of growth at 10 µM (A498): 67.1 to 79.6%; inhibition of growth at 10 µM (SW-620): 67.1 to 79.6%; inhibition of growth at 10 µM (SNB-19): 67.1 to 79.6%; inhibition of growth at 10 µM (MOLT-4): 67.1 to 79.6% |
